As a reminder, the IC50 is the concentration needed to halve the response being measured.

The results in this text go back to patent publication US20260078114A1, “COMPOUND USED AS INHIBITOR OF CDK4 KINASE AND USE THEREOF” (TYK MEDICINES, INC., priority 2022, published 2026).

Where two headings read alike, the source gives them in different places.

One assay concerns the target CDK6/CyclinD3 (Homo sapiens, UniProt Q00534). Briefly: Kinase activity test (mobility shift assay, EZ Reader), CDK6. It counts as biochemical. The note with it: CDK6/CyclinD3 5.00 nM, ATP 350 μM, FL-Peptide34.
Assay [1] relates to ovarian cancer cell A2780. In words: Cellular antiproliferative assay (MTT, 5 days), A2780. It counts as cell-based, human. The following applies: A2780 cells, 5 days incubation. How it is done:
(§1) Human breast cancer cell MCF-7, ovarian cancer cell A2780, human mantle cell lymphoma cell JEKO-1. DMEM medium (Bio-Channel), DMSO (dimethyl sulfoxide), MTT (thiazolyl blue), 0.25% EDTA-Tripsin (tryptic digest), 1×PBS (phosphate buffer, PH7.2), 96-well plate (Corning), fetal bovine serum (FBS), 10,000 U/mL penicillin-G/streptomycin, high-speed cryo-centrifuge (EPPENDORF 5810R), enzyme-linked immunoassay (Tecan Spark).
(§2) • A) Tumor cells were cultured in DMEM (high sugar with 10% FBS and 100 U/mL penicillin-G/streptomycin) at 37° C., 5% CO2 and saturated humidity until 80-90% dense. • B) Removed the culture medium from 10 cm Petri dishes; • C) Rinsed the cells once with 10 ml 1×PBS; • D) Added 4 ml 0.25% EDTA-Tripsin into 37° C., 5% CO2 incubator for trypsin digestion for 5 minutes, transferred to 15 ml centrifuge tube, centrifuged at 200 g for 5 minutes, discarded the supernatant to get cell precipitate; • E) Resuspended with 4 ml DMEM medium, counted and adjust to 50,000 cells/ml. • F) Added cell suspension to 96-well plate with 100 μL per well volume and incubated overnight at 37° C., 5% CO2 incubator.
(§3) • A) Preparation of gradient dilution solution of the tested compound: the test compound was configured into 1 mM reservoir solution.
(§4) • A) Taking the cell culture plate and adding 10 μL of 5 mg/ml MTT in the biosafety cabinet; • B) Putting the cell culture plate back into the incubator and continued incubation for 3 hours; • C) Taking the cell culture plate and removing the culture medium, adding 100 μL isopropanol (containing 0.4 mM HCl, 0.1% NP-40), and shaking the bed at room temperature for 30 min; and • D) Determining the absorbance value by selecting 570 nm on a TECAN enzyme-linked immunoassay detector.
(§5) The % Cell Viability was calculated using the following formula:
(§6) [formula] • Lum_HC: 0.1% DMSO control cell reading • Lum_Sample: cell readings with compound added • Lum_LC: Blank medium reading

The test system of assay [2] is human mantle cell lymphoma cell JEKO-1. Briefly: Cellular antiproliferative assay (MTT, 5 days), JEKO-1. The note with it: JEKO-1 cells, 5 days incubation. It counts as cell-based. How it is done:
as §1, §2, §3, §4, §5, §6

For assay [3], the system named is Human breast cancer cell MCF-7. Briefly: Cellular antiproliferative assay (MTT, 5 days), MCF-7. It counts as cell-based. The following applies: MCF-7 cells, 5 days incubation. The protocol:
as §1, §2, §3, §4, §5, §6

CDK6/CyclinD3, sequence (Q00534 whole entry, species assumed): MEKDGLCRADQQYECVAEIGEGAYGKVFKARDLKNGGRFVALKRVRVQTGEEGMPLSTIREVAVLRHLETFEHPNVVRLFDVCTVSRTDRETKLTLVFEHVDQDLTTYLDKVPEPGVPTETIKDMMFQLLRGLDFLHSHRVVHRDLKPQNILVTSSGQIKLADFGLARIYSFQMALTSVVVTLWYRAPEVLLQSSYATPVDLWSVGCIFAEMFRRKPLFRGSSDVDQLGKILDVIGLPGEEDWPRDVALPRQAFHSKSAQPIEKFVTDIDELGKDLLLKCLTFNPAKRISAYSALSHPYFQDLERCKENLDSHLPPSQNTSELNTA
CDK6/CyclinD3, sequence (P30281 whole entry partner, species assumed): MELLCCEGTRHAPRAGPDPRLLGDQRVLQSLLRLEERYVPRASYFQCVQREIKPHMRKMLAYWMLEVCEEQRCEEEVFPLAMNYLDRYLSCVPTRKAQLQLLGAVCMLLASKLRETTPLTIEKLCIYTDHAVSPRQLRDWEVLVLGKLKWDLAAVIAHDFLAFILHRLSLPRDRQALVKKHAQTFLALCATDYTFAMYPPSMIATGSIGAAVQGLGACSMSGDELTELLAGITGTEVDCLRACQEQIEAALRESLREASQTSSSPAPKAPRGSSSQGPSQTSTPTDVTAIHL

`CC(C)n1c(N2CCCC2=O)nc2c(F)cc(-c3nc(N[C@@H]4CCOC[C@H]4O)ncc3Cl)cc21` [TA-54]: the IC50 on CDK6/CyclinD3 was over 500 nM.

As for `CC(C)n1c(N(C)C)nc2c(F)cc(-c3nc(N[C@H]4CC[C@@H](NS(C)(=O)=O)CC4)ncc3Cl)cc21` [TB-4], the IC50 at CDK6/CyclinD3 was over 500 nM.

As for `CN1CCCn2c1nc1c(F)cc(-c3nc(N[C@@H]4CCOC[C@H]4O)ncc3C(F)(F)F)cc12` [TB-41, (3S,4R)-4-((4-(9-fluoro-1-methyl-1,2,3,4-tetrahydrobenzo[4,5]imidazo[1,2-a]pyrimidin-7-yl)-5-(trifluoromethyl)pyrimidin-2-yl)amino)tetrahydro-2H-pyran-3-ol], the IC50 in assay [1] (Homo sapiens, 120 h) is 500 to 2000 nM; in assay [2] (Homo sapiens, 120 h), 500 to 2000 nM; on CDK6/CyclinD3 it was over 500 nM; in assay [3] (Homo sapiens, MCF7, 120 h), 500 to 2000 nM.

Consider `CC(C)n1c(N2CCOC2=O)nc2c(F)cc(-c3nc(Nc4ccc(S(=O)(=O)NC5(C#N)CC5)cc4)ncc3Cl)cc21` [TB-68], for which the IC50 on CDK6/CyclinD3 is over 500 nM.

Consider `CN1CCCn2c1nc1c(F)cc(-c3nc(NC4CCC(F)(F)CC4)ncc3Cl)cc12` [TB-95, 5-chloro-N-(4,4-difluorocyclohexyl)-4-(9-fluoro-1-methyl-1,2,3,4-tetrahydrobenzo[4,5]imidazo[1,2-a]pyrimidin-7-yl)pyrimidin-2-amine], for which the IC50 at CDK6/CyclinD3 was over 500 nM.

In the case of `CN1CCCn2c1nc1c(F)cc(-c3nc(Nc4ccc(C#N)cc4)ncc3Cl)cc12` [TB-133, 4-((5-chloro-4-(9-fluoro-1-methyl-1,2,3,4-tetrahydrobenzo[4,5]imidazo[1,2-a]pyrimidin-7-yl)pyrimidin-2-yl)amino)benzonitrile], the IC50 in assay [1] (Homo sapiens, 120 h) was at most 500 nM; in assay [2] (Homo sapiens, 120 h) it was at most 500 nM; in assay [3] (Homo sapiens, MCF7, 120 h) it was at most 500 nM.

On to `CCS(=O)(=O)N1CCC(Nc2ncc(Cl)c(-c3cc(F)c4nc5n(c4c3)CCCN5C)n2)CC1` [TB-143, 5-chloro-N-(1-(ethylsulfonyl)piperidin-4-yl)-4-(9-fluoro-1-methyl-1,2,3,4-tetrahydrobenzo[4,5]imidazo[1,2-a]pyrimidin-7-yl)pyrimidin-2-amina], for which the IC50 in assay [1] (Homo sapiens, 120 h) was at most 500 nM; in assay [2] (Homo sapiens, 120 h), at most 500 nM; in assay [3] (Homo sapiens, MCF7, 120 h), at most 500 nM.

`CNS(=O)(=O)N1CCC(Nc2ncc(Cl)c(-c3cc(F)c4nc5n(c4c3)CCCN5C)n2)CC1` [TB-144, 4-((5-chloro-4-(9-fluoro-1-methyl-1,2,3,4-tetrahydrobenzo[4,5]imidazo[1,2-a]pyrimidin-7-yl)pyrimidin-2-yl)amino)-N-methylpiperidine-1-sulfonamide]: the IC50 in assay [1] (Homo sapiens, 120 h) is at most 500 nM; in assay [2] (Homo sapiens, 120 h) it was at most 500 nM; in assay [3] (Homo sapiens, MCF7, 120 h), at most 500 nM.

In the case of `CC1(C)CSc2nc3c(F)cc(-c4nc(N[C@@H]5CCOC[C@H]5O)ncc4Cl)cc3n2C1` [TB-146], the IC50 in assay [1], in assay [2] and in assay [3] (read-out: MCF7 IC50) was at most 500 nM each time.

For `C[C@H]1CCN(C)c2nc3c(F)cc(-c4cc(N[C@@H]5CCOC[C@H]5O)ncc4Cl)cc3n21` [TB-149], the IC50 in assay [1], in assay [2] and in assay [3] (read-out: MCF7 IC50) was at most 500 nM in each case.

`C[C@H]1C[C@H](C)n2c(nc3c(F)cc(-c4nc(N[C@@H]5CCOC[C@H]5O)ncc4Cl)cc32)N1C` [TB-153]: the half-maximal inhibitory concentration (IC50) was at most 500 nM in assay [1] (Homo sapiens, 120 h); at most 500 nM in assay [2] (Homo sapiens, 120 h); at most 500 nM in assay [3] (Homo sapiens, MCF7, 120 h).

In the case of `C[C@@H]1C[C@H](C)n2c(nc3c(F)cc(-c4nc(N[C@@H]5CCOC[C@H]5O)ncc4Cl)cc32)N1C` [TB-154], the IC50 in assay [1] (Homo sapiens, 120 h) was at most 500 nM; in assay [2] (Homo sapiens, 120 h) it was at most 500 nM; in assay [3] (Homo sapiens, MCF7, 120 h), at most 500 nM.

In the case of `CN1C(=O)CC(C)(C)n2c1nc1c(F)cc(-c3cc(N[C@@H]4CCOC[C@H]4O)ncc3Cl)cc12` [TB-162], the IC50 in assay [1], in assay [2] and in assay [3] (read-out: MCF7 IC50) was at most 500 nM in each case.
